According to the METLIN SMRT retention time set (Domingo-Almenara et al. 2019):

Test: gradient 5% acetonitrile 3 min, to 50% in 2 min, to 85% in 15 min, held 3 min, 100 µL/min
Details: column: Zorbax Extend-C18 2.1 x 50 mm; eluents: water / acetonitrile, 0.1% formic acid
In short: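 Retention times of pure standards were taken from adduct peaks that were selected by computer and manually inspected. Over 3 months, mixtures of ~100 molecules were run by HPLC–quadrupole time-of-flight mass spectrometry in positive and negative ionization mode. The Zorbax Extend-C18 column (2.1 × 50 mm, 1.8 μm) ran at 100 μL/min in water and acetonitrile, each containing 0.1% formic acid, with 40 μL dead volume and 900 μL dwell volume.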

RP-LC retention time | Structure (SMILES)
651 s | CC1OC(Oc2c(-c3cc(O)c(O)c(O)c3)oc3cc(O)cc(O)c3c2=O)C(O)C(O)C1O (stereo not given)
750 s | CCCNC(=O)C1CCCN(c2ccc(SCC(=O)Nc3ccccc3C(=O)OCC)nn2)C1 (stereo not given)
722 s | CCCn1cnc2cc(CNC(=O)c3ccc(-n4c(C)ccc4C)cc3)ccc21
692 s | Cc1c(-c2noc(C(=O)NCCCN3CCCCCC3)n2)oc2ccccc12
848 s | COc1ccc(CC(=O)NCCc2c[nH]c3ccc(Cl)cc23)cc1
637 s | CCOc1ccc(-c2cc3n(n2)CCCN(C(C)=O)C3)cc1
642 s | COC(=O)c1ccc2c(C(C)=O)c[nH]c2c1
719 s | O=C(Nc1cccc(-c2nnc3n2CCCC3)c1)C1(c2ccccc2)CC1
659 s | N#Cc1ccc(C(=O)N2CCOCCNC(=O)[C@@H]3CCC[C@@H]32)cc1
912 s | CCOC(=O)c1c(C)[nH]c(NC(=O)Nc2ccccc2C)c1C
787 s | CC(C)C(=O)Nc1nc(-c2ccc3c(c2)NC(=O)C(C)O3)cs1 (stereo not given)
870 s | CCC(C(=O)NCc1ccc(C)o1)n1nc(C)c2nn(-c3ccccc3)c(C)c2c1=O (stereo not given)
785 s | O=c1c2nc(-c3ccc4c(c3)OCO4)cn2ccn1-c1cccc(F)c1
623 s | O=C1CCCCC(Cc2ccccc2)(C(=O)Nc2cccnc2)N1 (stereo not given)
722 s | CCn1cc(CN2CCC(C(=O)NCc3ccco3)CC2)c2cc(Cl)ccc21
812 s | CN(C)S(=O)(=O)c1ccc2c(c1)N(CC(=O)N1CCCCC1)C(=O)C1CCCCN21 (stereo not given)
688 s | N#Cc1cccc(Cn2c(-c3nc(-c4ccccc4)no3)cccc2=O)c1
602 s | CC(=O)N1CCc2ccc(C(=O)N3CCOCC3)cc21
580 s | Cc1nn(CCCC(=O)N2CCN(c3ccccn3)CC2)c(=O)c2noc(C)c12
635 s | O=C(Cc1nnc(-c2cnccn2)o1)NCc1ccccc1
792 s | Cc1cccc(C2=NC3(CCN(C(=O)c4ccc5c(c4)OCO5)CC3)NC2=O)c1
949 s | Cc1nc(-c2cc(S(=O)(=O)N3CCC(C(=O)Nc4cccc(C#N)c4)CC3)c(C)s2)no1
794 s | O=C(NCc1ccccc1F)c1ccc2c(c1)Sc1ncccc1C(=O)N2C1CC1

RP-LC retention time | Structure (SMILES)
777 s | Cc1ccc2[nH]cc(CCN3CC(C(=O)Nc4ccc5c(c4)OCCO5)CC3=O)c2c1 (stereo not given)
687 s | O=S(=O)(c1ccc2c(c1)CCC2)N1CC[C@@H]2COCCN(Cc3cccnc3)[C@@H]2C1
644 s | O=C(c1cccc(C(F)(F)F)c1)N1CCN(c2nc(CN3CCOCC3)cs2)CC1
619 s | Cc1ccnc(NC(=O)C2CCN(S(=O)(=O)c3c(C)nn(CC(=O)N4CCCC4)c3C)CC2)c1
992 s | CCCN(CC1CCOC1)S(=O)(=O)c1ccccc1CC (stereo not given)
749 s | Cc1ccc(-c2noc(-c3ccc(N4CCN(c5cc(C)ccc5C)CC4)nc3)n2)cc1
801 s | O=S(=O)(NCc1cccnc1-c1ccc(F)cc1)c1ccc(Br)cc1
580 s | CCNC(=O)c1cc(N2CCCC2)nc2ccc(F)cc12
875 s | O=C(NCCCN1CCCCCC1)C(c1ccccc1)C1CCCCC1 (stereo not given)
695 s | COC(=O)c1cccc(NC(=O)CSc2nccc(N3CCN(c4ccccc4OC)CC3)n2)c1
710 s | COc1ccc(OC)c(CNC(=O)C2CCCN(c3cnc4nccnc4c3)C2)c1 (stereo not given)
761 s | CC(=O)Nc1ccc(-c2noc(C3CCN(C(=O)Cc4c[nH]c5ccccc45)CC3)n2)cc1
626 s | c1ccc2c(OCc3nc4ccccc4[nH]3)cccc2c1
804 s | CCSc1nnc(NC(=O)Cc2csc(NC(=O)c3ccc4c(c3)OCO4)n2)s1
837 s | O=C(Cc1cccc(C(F)(F)F)c1)Nc1cccn2ncnc12
784 s | COc1cccc(NC(=O)C2c3ccccc3C(=O)N3CCc4cc(OC)c(OC)cc4C23)c1 (stereo not given)
766 s | COc1ccc(-n2ccn3cc(-c4ccc5c(c4)OCO5)nc3c2=O)cc1
711 s | COc1cc(Cl)c(NC(=O)C2CC(=O)N(c3cccc(NC(C)=O)c3)C2)c(OC)c1 (stereo not given)
641 s | Cn1c(=O)cc(N2CCC[C@@H](N)C2)n(Cc2ccccc2C#N)c1=O
772 s | Cn1cc(S(=O)(=O)N2CCC(C(=O)Nc3cccc(F)c3)CC2)cc1C(=O)N1CCCC1
750 s | O=C(Nc1nnc(C2CC(=O)N(c3ccc(F)cc3)C2)o1)c1cccc(Cl)c1 (stereo not given)
648 s | CC(C)n1c(N2CCN(C(=O)CCc3nc4ccccc4[nH]3)CC2)cc(=O)n(C(C)C)c1=O
705 s | Nc1cc(C2CCN(C(=O)c3ccc(Cl)cc3)CC2)no1

RP-LC retention time | Structure (SMILES)
714 s | CC(C)CCNC(=O)c1csc(-c2ccc(N3CCCC3)nc2)n1
896 s | Cc1cc(C)n(Cc2nc(-c3ccc(NC(=O)c4cccs4)cc3)oc2C)n1
1070 s | CC1CCN(C(=O)C2c3ccccc3CCN2CC(=O)NCC2CCCCC2)CC1 (stereo not given)
638 s | Cc1ccnc(NC(=O)C2CCN(S(=O)(=O)c3cc(C(=O)N4CCCCCC4)cs3)CC2)c1
742 s | Cc1nnc(NC(=O)COc2ccc3ccccc3c2)s1
848 s | CCN1C(=O)COc2ccc(-c3noc(-c4cccc(NC(C)=O)c4)n3)cc21
1210 s | O=S(=O)(c1ccc(-c2noc(-c3ccc(F)c(F)c3)n2)cc1)N1CCCC1
1290 s | CCCCn1c(=O)c2ccccc2n(Cc2nc(-c3ccc(F)c(Cl)c3)no2)c1=O
882 s | CNC(=O)c1ccsc1NC(=O)c1ccc(Cl)s1
858 s | COc1ccc(NC(=O)N2CC=C(c3cn(C(C)C)c4ncccc34)CC2)cc1
713 s | COCCn1ncc(N2CCC(C(=O)N3CCc4ccccc43)C2)cc1=O (stereo not given)
1120 s | Cc1c(Cl)cccc1Nc1c(-c2ccc(Cl)cc2)nc2cnccn12
744 s | CCc1noc([C@@H]2CC(F)(F)CN2C(=O)c2nccn2C)n1
708 s | COc1cc(NC(=O)C2CCCN(c3cc(=O)n(C)c(=O)n3C)C2)cc(OC)c1 (stereo not given)
837 s | CC(NC(=O)Cn1cc(C(=O)c2ccco2)c2ccccc21)c1ccc2c(c1)OCCCO2 (stereo not given)
874 s | CCC(=O)N1c2ccc(S(=O)(=O)CCC(=O)NCCc3ccc(C)cc3)cc2CC1C (stereo not given)
1200 s | CCc1nc(-n2cccc2)sc1C(=O)Nc1ccc(C)cc1F
542 s | CS(=O)(=O)N1C[C@@H](COc2ccncc2)[C@H](c2ccccn2)C1
821 s | O=C(Nc1ccc(F)cc1)C(=O)c1ccc[nH]1
652 s | COc1ccc(C(O)CN2CCN(c3ccc(F)cc3)CC2)cc1 (stereo not given)
983 s | CC(C)OCCCNC(=O)C(=O)Nc1ccc(C(C)C)cc1
938 s | FC(F)c1nc2ccccc2n1-c1nc(N2CCOCC2)nc(N2CCOCC2)n1
1040 s | Cc1cc(NC(=O)CCc2nc(CSc3nnc(-c4ccccc4)o3)no2)ccc1Br

RP-LC retention time | Structure (SMILES)
599 s | CC(C)n1c(-c2cccc(C(=O)NCc3ccncc3)c2)nc2cccnc21
840 s | Cc1ccc(NS(=O)(=O)c2cc3n(c2)CCN(CC(C)C)C3=O)cc1F
560 s | Cc1nnc(CNC(=O)Cc2csc(Nc3ncccn3)n2)o1
681 s | O=C(CN1CCC2(CC1)N=C(c1ccc(Cl)cc1)C(=O)N2)Nc1ccc2c(c1)OCO2
1110 s | CC(NC(=O)c1ccco1)c1nc(-c2ccc(N3CCCCCC3)cc2)no1 (stereo not given)
677 s | Cc1nnc(NC(=O)Cc2csc(NC(=O)C3CCCC3)n2)s1
808 s | CCc1ccc(OCCS(=O)(=O)Nc2cc(NC(C)=O)ccc2OC)cc1
801 s | COc1ccc(Cl)c(Cn2c(NCC3CCCO3)nc3c2c(=O)n(C)c(=O)n3C)c1 (stereo not given)
555 s | CN(C)c1ccc(CNC(=O)C2CCN(c3cncnc3N3CCCC3)CC2)cc1
608 s | O=C(Cn1cnc2ccccc21)N1CCC(COCc2ccccc2)CC1
786 s | Cn1ncc(N2CCCC(C(=O)Nc3ccc4c(c3)CCC4)C2)cc1=O (stereo not given)
736 s | CC(C)c1nncn1C1CCN(S(=O)(=O)Cc2cccc(Cl)c2)CC1
765 s | Cc1[nH]c(C(=O)N2CCC(CC(=O)NCc3ccco3)CC2)c(C)c1C(=O)OC(C)C
1160 s | O=C(Nc1ccc(Cl)cc1)C1CCN(c2nccnc2Sc2ccccc2)CC1
788 s | O=C(CSc1ccc(-c2ccco2)nn1)Nc1ccc(F)cc1F
693 s | CCn1cc(CCNC(=O)Nc2ccccc2)c2cccnc21
646 s | Cc1cc(C)n2c(Nc3c(C)cccc3C)c(-c3ccc(O)cc3)nc2n1
571 s | CN1CCN(C(=O)CCCN2C(=O)CCn3nc(-c4cn(C)c5ccccc45)cc32)CC1
1340 s | CC(C)(C)c1csc(-c2csc(S(=O)(=O)N3CCCCCC3)c2)n1
594 s | CCN(Cc1ccc(F)cc1)Cc1cc(=O)c2cccc(F)c2[nH]1

Structure (SMILES) | RP-LC retention time
COc1ccc(C2(C(=O)N3CCC4(CC3)N(CC3CC3)C(=O)CS4=O)CC2)cc1 (stereo not given) | 677 s
